The structures appear in SMILES notation. Where two headings read alike, the source gives them in different places.

Assay type in all cases: cell-based
Series [1] relates to chloroquine sensitive strain of P. falciparum (3D7). The series is described as follows: In vitro antiplasmodial assay (parasite lactate dehydrogenase, pLDH). As to conditions: 20 µM. The procedure:
An antimalarial evaluation was performed against the chloroquine sensitive strain of P. falciparum (3D7) using the parasite lactate dehydrogenase (pLDH) assay as previously reported. Parasites were seeded at 2% parasitemia and 1% hematocrit in 96 well plates and were incubated with 20 µM of the test compounds for 48 h in culture medium consisting of Rosell Park Memorial Institute (RPMI 1640; Lonza, Basel, Switzerland) containing 25 mM 4-(2-hydroxyethyl)-1-piperazineethanesulfonic acid (HEPES), supplemented with 0.5% (w/v) Albumax II, 22 mM glucose, 0.65 mM hypoxanthine, 0.05mg/mL gentamicin, and 1% (v/v) human erythrocytes, at 37 °C under an atmosphere of 5% CO2, 5% O2, and 90% N2. The parasite lactate dehydrogenase activity in the wells was determined using the colorimetric assay method of Makler et al.. The absorbance readings were converted to % parasite viability relative to the wells containing untreated parasites.
(§1) Thirty-five tetralone derivatives (see Figure 2) and six related benzocycloalkanones (see Figure 3) were evaluated in vitro against T. b. brucei for antitrypanosomal activity through the resazurin assay protocol. The compounds were also evaluated against the chloroquine-sensitive strain (3D7) of P. falciparum for antimalarial activity using pLDH assay and against the HeLa cell line for cytotoxicity evaluation using the resazurin assay protocol.

For series [2], the system named is 427 Trypanosoma brucei brucei trypomastigotes. Put plainly: In vitro anti-trypanosomal assay (resazurin). Particulars: 48 h; for IC50: three-fold serial dilutions from 100 µM, read-out: IC50 (µM) T. b. brucei. The procedure:
The activity of the compounds against 427 Trypanosoma brucei brucei trypomastigotes was determined as previously described. Briefly, parasites were incubated in 96-well plates with 20 µM or three-fold serial dilutions (100 µM starting concentration) of test compounds in Iscove’s modified Dulbecco’s medium (IMDM) (Lonza, Basel, Switzerland) supplemented with 10% fetal calf serum, HMI-9 supplement, hypoxanthine, and penicillin/streptomycin at 37 °C in a 5% CO2 incubator. After 48 h, 20 µL of resazurin reagent (0.135 mg/mL resazurin in phosphate-buffered saline) was added to each well and the fluorescence (Ex560/Em590) read after 2–4 h in a Spectramax M3 plate reader (Molecular Devices, San Jose, CA, USA). The fluorescence readings were used to calculate % parasite viability relative to the readings obtained from the wells containing untreated control parasite cultures. The IC50 values were determined by plotting % viability vs. log(compound) and performing a non-linear regression using a GraphPad Prism (v. 5.02) (San Diego, CA, USA).
as §1
Background: Resazurin is reduced to fluorescent resorufin, in cell work by metabolically active cells.

In another series the test system is HeLa cells. Put plainly: In vitro cytotoxicity assay (resazurin). Particulars: 20 µM compound, 24 h, % cell viability relative to untreated control. The procedure:
(§2) As previously described, HeLa cells (Cellonex, Johannesburg, South Africa) were seeded in 96-well plates at a density of 2 × 10^4 cells/well in Dulbecco’s modified Eagle’s medium (DMEM) (Lonza, Basel, Switzerland) supplemented with 10% fetal calf serum and antibiotics (penicillin/streptomycin/amphotericin B) and incubated overnight at 37 °C in a 5% CO2 incubator. Compounds were added to the cells at a final concentration of 20 µM, and incubation continued for 24 h. The cell viability in the wells was assessed by adding 20 µL of resazurin reagent (0.135 mg/mL resazurin in phosphate-buffered saline) and reading the fluorescence (Ex560/Em590) after an additional 2–4 h incubation. The fluorescence readings were converted to % cell viability relative to the average readings obtained from the untreated control wells.
as §1

A short description of series [3]: In vitro cytotoxicity assay (resazurin). Particulars: human, HeLa cells; 20 µM compound, 24 h, % cell viability relative to untreated control; read-out: % Viability at 20 µM (SD) HeLa Cell. The procedure:
as §2, §1

The mark [4] stands for this setting: 20 µM compound, % parasite viability relative to untreated control, 20 µM.
[5] abbreviates: 20 µM compound, % parasite viability relative to untreated control.

Take `O=c1c(Cc2ccc(Cl)cc2)coc2ccccc12` [Compound 40]: the “% Viability at 20 µM (SD) 3D7” value in series [1] was 90 (6) %. Moreover, in series [2] (setting [4]), the “% Viability at 20 µM (SD) T.b. brucei” value is listed as 94 (7) %. The “% Viability at 20 µM (SD) HeLa Cell” value with HeLa cells is recorded as 103 (3) %.
As to `O=C1/C(=C/c2ccccc2)CCc2c(O)cccc21` [Compound 8], the “% Viability at 20 µM (SD) T.b. brucei” value in series [2] (setting [5]) was 0.5 (0.1) %. For the same compound, the “% Viability at 20 µM (SD) HeLa Cell” value in the series on HeLa cells is listed as 35 (1) %.
For the compound `O=C1/C(=C/c2cccc(Cl)c2)CCc2ccccc21` [Compound 17], the “% Viability at 20 µM (SD) 3D7” value in series [1] was 100 (9) %. Besides, in series [2] (setting [5]), the “% Viability at 20 µM (SD) T.b. brucei” value was 0.2 (0.3) %. Besides, the “% Viability at 20 µM (SD) HeLa Cell” value in the series on HeLa cells is 41 (13) %.
On to `O=c1c(Cc2ccc(Cl)cc2)csc2ccccc12` [Compound 41], for which the “% Viability at 20 µM (SD) 3D7” value in series [1] is reported as 107 (5) %. In series [2] (setting [4]), the “% Viability at 20 µM (SD) T.b. brucei” value was 103 (0.3) %. The “% Viability at 20 µM (SD) HeLa Cell” value with HeLa cells is reported as 109 (7) %.
As to `COc1ccc2c(c1)C(=O)/C(=C/c1cccnc1)CC2` [Compound 31], the “% Viability at 20 µM (SD) 3D7” value in series [1] is given as 85 (12) %. For the same compound, the “% Viability at 20 µM (SD) HeLa Cell” value in the series on HeLa cells is on record as 17 (4) %.
Turning to `O=C1/C(=C/c2cccc(F)c2)CCc2ccc(O)cc21` [Compound 13], the “% Viability at 20 µM (SD) 3D7” value in series [1] is 13 (1) %. Moreover, the “% Viability at 20 µM (SD) T.b. brucei” value in series [2] (setting [5]) is −0.9 (0.1) %. Besides, the “% Viability at 20 µM (SD) HeLa Cell” value in the series on HeLa cells is on record as 21 (1) %.
For `O=C1/C(=C/c2ccc(Cl)c(Cl)c2)CCc2ccc(O)cc21` [Compound 22] the same measures were 81 (1) %, 0.9 (0.2) % and 5 (0.9) %.
As for `COc1ccc2c(c1)C(=O)/C(=C/c1cccs1)CC2` [Compound 30], the “% Viability at 20 µM (SD) 3D7” value in series [1] was 107 (6) %. In addition, the “% Viability at 20 µM (SD) T.b. brucei” value in series [2] (setting [5]) is 32 (9) %. The “% Viability at 20 µM (SD) HeLa Cell” value in the series with HeLa cells is 106 (2) %.
For `COc1ccc2c(c1)C(=O)/C(=C/c1ccc[nH]1)CC2` [Compound 29] the same measures were 115 (5) %, 103 (1) % and 97 (5) %.
Turning to `O=C1/C(=C/c2ccc(F)cc2)CCc2ccccc21` [Compound 5], in series [1], the “% Viability at 20 µM (SD) 3D7” value was 107 (5) %. Moreover, the “% Viability at 20 µM (SD) HeLa Cell” value in the series on HeLa cells is 100 (2) %.
For orientation: viability means a read-out of living cells in per cent, often relative to untreated cells. Broadly, the IC50 is the concentration needed to halve the response being measured. On to `O=C1/C(=C/c2ccc(F)cc2)CCc2ccc(O)cc21` [Compound 12], for which the viability at 20 µM in series [2] (Trypanosoma brucei, 20 µM compound, % parasite viability relative to untreated control, read-out: % Viability at 20 µM (SD) T.b. brucei) is -0.6%. The results for the 50% inhibitory concentration (IC50) in series [2] (Trypanosoma brucei) and in series [2] were 0.6 µM and 0.68 µM, respectively. In series [3], the viability at 24 h, 20 µM is 29%.
With `CN(C)c1ccc(/C=C2\CCc3ccc(O)cc3C2=O)cc1` [Compound 21], the “% Viability at 20 µM (SD) 3D7” value in series [1] was 142 (9) %. Moreover, the “% Viability at 20 µM (SD) T.b. brucei” value in series [2] (setting [5]) is on record as 25 (2) %. Further, the “% Viability at 20 µM (SD) HeLa Cell” value in the series with HeLa cells is recorded as 51 (4) %.
For `COc1ccc2c(c1)C(=O)/C(=C/c1ccccn1)CC2` [Compound 33] the same measures were 7 (8) %, −0.4 (0.2) % and 20 (0.6) %.
The like results for `O=C1/C(=C/c2cccnc2)CCc2ccccc21` [Compound 25] were, in that order, 29 (12) %, −0.7 (0.4) % and 24 (0.4) %.
As to `O=C1/C(=C/c2ccc(Cl)cc2)CCCc2ccccc21` [Compound 37], in series [1], the “% Viability at 20 µM (SD) 3D7” value is reported as 113 (0.6) %. Further, the “% Viability at 20 µM (SD) T.b. brucei” value in series [2] (setting [4]) was 0.3 (0.3) %. Further, in the series with HeLa cells, the “% Viability at 20 µM (SD) HeLa Cell” value is on record as 53 (10) %.
As to `O=C1/C(=C/c2ccc(Cl)cc2)CCc2ccccc21` [Compound 24], the “% Viability at 20 µM (SD) 3D7” value in series [1] is listed as 100 (8) %. In addition, the “% Viability at 20 µM (SD) T.b. brucei” value in series [2] (setting [5]) is on record as 26 (8) %. Also, the “% Viability at 20 µM (SD) HeLa Cell” value in the series with HeLa cells was 100 (3) %.

The values are drawn from article PMC6572618, “Anti-Trypanosomal and Antimalarial Properties of Tetralone Derivatives and Structurally Related Benzocycloalkanones” (Medicina, 2019).
